PubChem BioAssay AID1963825 (Molecular Pharmacology Branch, DTP, NCI, 2024)

Test: Anticancer human tumor 997537-175-T-J1-PDC patient-derived colon adenocarcinoma cell line growth inhibition [POLQ]
Settings: 997537-175-T-J1-PDC complex spheroid viability, combination with POLQ inhibitors; for IC50: curve of first compound; for viability, T/C: stronger effect = lower value
In short: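 Complex spheroid viability model combining PDC tumour cells with endothelial (HUVEC) and MSC stromal cells. Novobiocin, ART-558 or RP6685 were tested singly and in combination with standard and investigational anticancer drugs. Each was titrated in half-log steps from near clinical Cmax, or from 10 microM where Cmax was unknown.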

[1] = second compound 0.0316 µM, first compound 0.0316 µM
[2] = second compound 0.0316 µM, first compound 0.1 µM
[3] = second compound 0.0316 µM, first compound 0.316 µM
[4] = second compound 0.0316 µM, first compound 1 µM
[5] = second compound 0.0316 µM, first compound 3.16 µM
[6] = second compound 0.0316 µM, first compound 10 µM
[7] = second compound 0.1 µM, first compound 0.0316 µM
[8] = second compound 0.1 µM, first compound 0.1 µM
[9] = second compound 0.1 µM, first compound 0.316 µM
[10] = second compound 0.1 µM, first compound 1 µM
[11] = second compound 0.1 µM, first compound 3.16 µM
[12] = second compound 0.1 µM, first compound 10 µM
[13] = second compound 0.316 µM, first compound 0.0316 µM
[14] = second compound 0.316 µM, first compound 0.1 µM
[15] = second compound 0.316 µM, first compound 0.316 µM
[16] = second compound 0.316 µM, first compound 1 µM
[17] = second compound 0.316 µM, first compound 3.16 µM
[18] = second compound 0.316 µM, first compound 10 µM
[19] = second compound 1 µM, first compound 0.0316 µM
[20] = second compound 1 µM, first compound 0.1 µM
[21] = second compound 1 µM, first compound 0.316 µM
[22] = second compound 1 µM, first compound 1 µM
[23] = second compound 1 µM, first compound 3.16 µM
[24] = second compound 1 µM, first compound 10 µM
[25] = second compound 3.16 µM, first compound 0.0316 µM
[26] = second compound 3.16 µM, first compound 0.1 µM
[27] = second compound 3.16 µM, first compound 0.316 µM
[28] = second compound 3.16 µM, first compound 1 µM
[29] = second compound 3.16 µM, first compound 3.16 µM
[30] = second compound 3.16 µM, first compound 10 µM
[31] = second compound 10 µM, first compound 0.0316 µM
[32] = second compound 10 µM, first compound 0.1 µM
[33] = second compound 10 µM, first compound 0.316 µM
[34] = second compound 10 µM, first compound 1 µM
[35] = second compound 10 µM, first compound 3.16 µM
[36] = second compound 10 µM, first compound 10 µM
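Further: luminescence signal used as a surrogate for viable cells; spheroids exposed to drugs for seven days before readout.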

## CC1COCCN1c1cc(C2(O)CC3CCC(C2)O3)c2cnn(-c3ccn[nH]3)c2n1 (centres undefined) + COC1C(OC(N)=O)C(O)C(Oc2ccc3c(O)c(NC(=O)c4ccc(O)c(CC=C(C)C)c4)c(=O)oc3c2C)OC1(C)C
Second compound 0.0316 µM
  IC50: 234 nM
Second compound 0.1 µM
  IC50: 276 nM
Second compound 0.316 µM
  IC50: 290 nM
Second compound 1 µM
  IC50: > 10000 nM
Second compound 3.16 µM
  IC50: > 10000 nM
Second compound 10 µM
  IC50: > 10000 nM
[1]
  viability, T/C: 72.4%
[2]
  viability, T/C: 70.1%
[3]
  viability, T/C: 42.2%
[4]
  viability, T/C: 36.9%
[5]
  viability, T/C: 40.1%
[6]
  viability, T/C: 52%
[7]
  viability, T/C: 75.6%
[8]
  viability, T/C: 81.3%
[9]
  viability, T/C: 36%
[10]
  viability, T/C: 37.9%
[11]
  viability, T/C: 50.3%
[12]
  viability, T/C: 60.8%
[13]
  viability, T/C: 84.2%
[14]
  viability, T/C: 66.8%
[15]
  viability, T/C: 41.2%
[16]
  viability, T/C: 51.1%
[17]
  viability, T/C: 51.4%
[18]
  viability, T/C: 50.8%
[19]
  viability, T/C: 82.9%
[20]
  viability, T/C: 68%
[21]
  viability, T/C: 59.5%
[22]
  viability, T/C: 55.3%
[23]
  viability, T/C: 64.2%
[24]
  viability, T/C: 42.8%
[25]
  viability, T/C: 82.8%
[26]
  viability, T/C: 68.1%
[27]
  viability, T/C: 47.9%
[28]
  viability, T/C: 48.9%
[29]
  viability, T/C: 61.7%
[30]
  viability, T/C: 50.8%
[31]
  viability, T/C: 71.3%
[32]
  viability, T/C: 60.5%
[33]
  viability, T/C: 41.1%
[34]
  viability, T/C: 58.3%
[35]
  viability, T/C: 61.7%
[36]
  viability, T/C: 63.6%

## COc1cccc2c1C(=O)c1c(O)c3c(c(O)c1C2=O)CC(O)(C(=O)CO)CC3OC1CC(N)C(O)C(C)O1 (centres undefined) + Cc1cccc(N(C)C(=O)C2C(O)CCN2c2nc(C)cc(C(F)(F)F)c2C#N)c1
Second compound 0.0316 µM
  IC50: 2650 nM
Second compound 0.1 µM
  IC50: 2390 nM
Second compound 0.316 µM
  IC50: 4160 nM
Second compound 1 µM
  IC50: 1540 nM
Second compound 3.16 µM
  IC50: 2000 nM
Second compound 10 µM
  IC50: 1780 nM
[1]
  viability, T/C: 81.4%
[2]
  viability, T/C: 98.2%
[3]
  viability, T/C: 104%
[4]
  viability, T/C: 85.8%
[5]
  viability, T/C: 43.6%
[6]
  viability, T/C: 10.9%
[7]
  viability, T/C: 101%
[8]
  viability, T/C: 102%
[9]
  viability, T/C: 113%
[10]
  viability, T/C: 76.6%
[11]
  viability, T/C: 42.2%
[12]
  viability, T/C: 9.45%
[13]
  viability, T/C: 99.3%
[14]
  viability, T/C: 108%
[15]
  viability, T/C: 116%
[16]
  viability, T/C: 95.4%
[17]
  viability, T/C: 63.4%
[18]
  viability, T/C: 9.08%
[19]
  viability, T/C: 92.8%
[20]
  viability, T/C: 111%
[21]
  viability, T/C: 99.8%
[22]
  viability, T/C: 63.7%
[23]
  viability, T/C: 26.1%
[24]
  viability, T/C: 9.7%
[25]
  viability, T/C: 82.9%
[26]
  viability, T/C: 115%
[27]
  viability, T/C: 92.2%
[28]
  viability, T/C: 97%
[29]
  viability, T/C: 18.8%
[30]
  viability, T/C: 10.2%
[31]
  viability, T/C: 102%
[32]
  viability, T/C: 104%
[33]
  viability, T/C: 90.7%
[34]
  viability, T/C: 56.2%
[35]
  viability, T/C: 41.9%
[36]
  viability, T/C: 9.99%
